From EP2179734B1, “Benzoxazine and dihydroquinazoline derivatives for use in the treatment of alcohol withdrawal syndrome” (Biocodex, priority 2008, dated 2010)

Legend:
souris sevrée [1] = test: Handling-induced convulsion score during alcohol withdrawal (Watson and Little 1995); format: in vivo; settings: NMRI mice, 4 to 6 h after removal
Protocol: (§1) Des souris de souche NMRI (élevage Janvier), âgées de 5 à 6 semaines et de poids compris entre 25 et 30 g sont utilisées après 10 jours d'habituation aux conditions du laboratoire. Les conditions d'hébergement sont les suivantes : t° ambiante = 22 ± 2 °C; hygrométrie relative = 50 ± 20 %; cycle lumière/obscurité : 12 h/12 h (lumière de 7h00 à 19h00); nourriture A04 (SAFE, France) et boisson (eau du robinet) à volonté; dix animaux groupés par cage de polypropylène (435x435x194 mm).
(§2) Dans un premier temps, les animaux ont été familiarisés avec la nourriture liquide apportée sous un volume quotidien de 40 ml durant 7 à 10 jours. Celle-ci est constituée de lait chocolaté (Candia, France) auquel sont ajoutés 5 g/l d'un mélange de sels minéraux (ICN, France) et 3 g/l d'un mélange de vitamines (ICN, France).
(§3) Dans un deuxième temps, les animaux alcoolisés ont reçu la nourriture liquide contenant 3 % (p/v) d'éthanol (95°) durant 8 jours puis 4 % (p/v) d'éthanol (95°) durant 7 jours, tandis que les animaux témoins (non alcoolisés) ont eu accès à une nourriture avec l'équivalent calorique de dextrose (D-glucose, VWR, France).
(§4) Aucune nourriture solide, ni eau de boisson n'ont été proposées aux animaux durant cette période d'alcoolisation. Au terme des 15 jours d'alcoolisation (J15), le biberon avec l'alcool a été remplacé par un biberon de nourriture identique à celui des animaux témoins.
Cette mesure est effectuée selon le protocole décrit par Watson and Little (1995) J Pharmacol Exp Ther 272: 876-884. Brièvement, l'animal est soulevé par la queue et maintenu durant 30 secondes à 30 cm d'une lampe pourvue d'une ampoule de 60W puis subit une légère rotation (360°). Le comportement de chaque animal est évalué selon une échelle de cotation de 0 à 5, selon des critères figurant dans le Tableau 1 : Tableau 1 : Différents niveaux de cotation du comportement chez la souris selon Watson et Little (1995)
La mesure est réalisée avant l'expérience (conditions basales), 24 heures avant le retrait de l'éthanol puis le jour du retrait toutes les heures de 1 à 7 heures après le retrait du biberon de nourriture (7h00 - 8h00 le matin).
L'étifoxine (6.25 - 100 mg/kg) et le diazépam (1 et 4 mg/kg) sont administrés par voie intrapéritonéale (ip) 3h30 après le retrait du biberon. Une étude préliminaire a montré que les signes de sevrage étaient présents à ce temps (score ≥ 2). Les animaux contrôles reçoivent un volume équivalent de liquide véhicule.
Un score (de 0 à 5) est attribué pour chaque animal à chaque temps (de 1 à 7 h).
L'étifoxine (lots 219 et 350; Biocodex - France) est mis en suspension dans une solution saline (NaCl-0.9 %; p/v) de tween 80 à 1% (v/v) tandis que le diazépam (Valium®) est solubilisé dans une solution saline. Le volume d'administration par voie ip est de 0.1 ml/10 g. […]

souris sevrée [2] = test: Anxiety level during alcohol withdrawal: two-compartment (light/dark) box test (Crawley and Goodwin 1980, modified); format: in vivo; settings: 8 h after ethanol removal, 5 min test, withdrawn NMRI mice
Protocol: as §1, §2, §3, §4
Le protocole décrit par Crawley and Goodwin (1980) Pharmacol Biochem Behav 1980; 13: 167-170 et légèrement modifié a été utilisé. Cette épreuve, reposant sur les tendances agoraphobiques et photophobiques des rongeurs, est classiquement utilisée pour mesurer leur niveau de peur ou d'anxiété.
Le dispositif est constitué d'une boîte en plexiglas à 2 compartiments (OSYS, Orga System; France) : l'un (18 x 27 x 30 cm) sombre et pourvu d'un couvercle, est éclairé à l'aide d'une lampe rouge (60W; 4 lux) tandis que le plus grand (27 x 27 x 30 cm), peint en blanc, est éclairé à l'aide d'une lampe de 60 W (400 lux). Une entrée (7.5 x 7.5 cm) située au centre de la cloison qui sépare les 2 compartiments, relie les 2 compartiments. Ceux-ci, équipés de cellules photoélectriques infra-rouges (4 dans le compartiment clair et 3 dans le compartiment sombre) reliées à un compteur digital, permettent la détection et la mesure des déplacements de l'animal. Celui-ci est déposé au centre du compartiment sombre face à l'ouverture. La latence d'entrée (en sec.) dans le compartiment clair, le nombre de déplacements dans le compartiment clair et le nombre de transition entre les 2 compartiments sombre et clair sont relevés au terme d'une épreuve de 5 min. La boîte est nettoyée avec de l'eau alcoolisée (10 %; v/v) pour éliminer toute trace odorante entre chaque passage. L'épreuve est réalisée 8 h après le retrait de la nourriture alcoolisée. Ce délai correspond au temps optimal pour la mesure du niveau d'anxiété chez l'animal soumis au sevrage alcoolique (Watson et Little (1994) Psychopharmacology (Berl) 114: 329-336).
L'étifoxine (6.25 - 50 mg/kg) ou le diazépam (1 mg/kg) est administré par voie ip 30 min avant l'épreuve. Les animaux contrôles reçoivent un volume équivalent de liquide véhicule.
L'étifoxine (lots 219 et 350; Biocodex - France) est mis en suspension dans une solution saline (NaCl-0.9 %; p/v) de tween 80 à 1% (v/v) tandis que le diazépam (Valium®) est solubilisé dans une solution saline. Le volume d'administration par voie ip est de 0.1 ml/10 g.
Les résultats sont exprimés par la valeur moyenne ± erreur standard à la moyenne (esm). Concernant la mesure de l'intensité des convulsions induites par la manipulation, l'analyse de variance (ANOVA) à 2 facteurs (temps x traitement) avec mesures répétées sur le facteur temps suivie de manière post-hoc par le test de Student Newman-Keuls, a été utilisée pour localiser les différences entre les groupes expérimentaux. […]

Structure (SMILES) | score de convulsions (souris sevrée [1]; 12.5 mg/kg ip 3h30 after ethanol removal, vs alcoholised controls, p<0.05) | score de convulsions (souris sevrée [1]; 25 mg/kg ip 3h30 after ethanol removal, vs alcoholised controls, p<0.05) | score de convulsions (souris sevrée [1]; 100 mg/kg ip 3h30 after ethanol removal, vs alcoholised controls, p<0.05) | latence d'entrée dans le compartiment clair (souris sevrée [2]; 50 mg/kg ip 30 min before test) | nombre de déplacements dans le compartiment clair (souris sevrée [2]; 50 mg/kg ip 30 min before test) | nombre de transitions entre les 2 compartiments (souris sevrée [2]; 50 mg/kg ip 30 min before test) | score de convulsions (souris sevrée [1]; mainly at 4 mg/kg ip 3h30 after ethanol removal) | latence d'entrée dans le compartiment clair (souris sevrée [2]; 1 mg/kg ip 30 min before test) | nombre de déplacements dans le compartiment clair (souris sevrée [2]; 1 mg/kg ip 30 min before test) | nombre de transitions entre les 2 compartiments (souris sevrée [2]; 1 mg/kg ip 30 min before test)
CCNC1=Nc2ccc(Cl)cc2C(C)(c2ccccc2)O1 (stereo not shown) [étifoxine, chlorhydratede 6-chloro-2-éthylamino-4-méthyl-4-phényl-4H-[3,1]benzoxazine] | réduit significativement le score de convulsions | réduit significativement le score de convulsions | réduit significativement le score de convulsions | s'oppose aux effets du sevrage à l'éthanol sur ces 3 paramètres avec un effet statistiquement significatif | s'oppose aux effets du sevrage à l'éthanol sur ces 3 paramètres avec un effet statistiquement significatif | s'oppose aux effets du sevrage à l'éthanol sur ces 3 paramètres avec un effet statistiquement significatif | – | – | – | –
CN1C(=O)CN=C(c2ccccc2)c2cc(Cl)ccc21 [diazépam] | – | – | – | – | – | – | produit le même effet | atténue également de manière significative les effets du retrait de l'éthanol | atténue également de manière significative les effets du retrait de l'éthanol | atténue également de manière significative les effets du retrait de l'éthanol
